The subject of the test is outpatients with mild-to-moderate Alzheimer's disease. Put plainly: NPI in randomized, double-blind, placebo-controlled study. In kind it is in vivo, human. The settings on record: for NPI total Difference (memantine minus placebo, LS mean): Week 24, ITT, 20 mg/day. On the procedure:
In the study of the present invention, there were approximately 400 patients enrolled across 42 centers. Evaluation of primary efficacy was achieved by Alzheimer's Disease Assessment Scale-cognitive subscale (ADAS-cog) and the Clinician's Interview-Based Impression of Change including caregiver information (CIBIC-plus). Secondary efficacy was determined using Alzheimer's disease Cooperative Study-Activities of Daily Living (ADCS-ADL) and Neuropsychiatric Inventory (NPI) criteria. The NPI is a validated scale that assesses behavioral disturbances in patients with dementia (Cummings et al., Neurology. 1994; 44(12):2308-14). It provides both a total score (sum of 12 domain scores) as well as scores for each subscales (e.g., delusions, hallucinations, agitation/aggression, depression/dysphoria, anxiety, disinhibition, elation/euphoria, apathy/indifference, irritability/lability, aberrant motor activity). For each subscale, both the frequency and the severity of each behavior is measured. The NPI total score ranges from 0 (higher functioning status) to 144 (lower functioning status). The NPI is based upon responses from the caregiver. The NPI was administered at Baseline and the end of Weeks 12 and 24 (or upon early termination). The study consisted of 1-2 weeks of single-blind placebo treatment followed by 24 weeks of double-blind treatment. Results were evaluated over seven clinical visits; at initial screening, baseline, and the end of weeks 4, 8, 12, 18 and 24. This study was conducted as a fixed-dose study. All patients assigned to the memantine group received an initial dose of 5 mg per day; the dose was titrated in 5 mg weekly increments to a final dose of 20 mg/day (administered as two 5 mg tablets twice a day). Study drug was provided as blister packs containing masked study medication such that placebo and memantine tablets were visually identical, and all patients received four tablets of study medication daily (in combinations of memantine 5 mg tablets and matching placebo tablets). […] Descriptive statistics were calculated by visit. […]

Consider `CC12CC3CC(C)(C1)CC(N)(C3)C2` [Memantine, 1-amino-3,5-dimethyladamantane], for which the “individual NPI criteria significantly better than in the placebo-treated group” value (LOCF, week 24) is recorded as “three”. For the same molecule, the “NPI total Difference (memantine minus placebo, LS mean)” value runs as follows: (LOCF analysis, p=0.011) −3.5; (OC analysis, p=0.143) −2.1.

The values are drawn from patent publication US20060020042A1, “Memantine for the treatment of mild and mild to moderate Alzheimer's disease” (Forest Laboratories, Inc., priority 2004, published 2006).
